Measured values taken from patent US20240132450A1, “MODULATORS OF G PROTEIN-COUPLED RECEPTOR 88” (ACADIA Pharmaceuticals Inc., priority 2020, published 2024).
Like-named read-outs stand apart in the source and are kept apart here.

Assays:
[1] = Hepatocyte stability (mouse); assay type: in vitro ADME; conditions: test compound 3 μM, 60 min; for hepatocyte CLint at 3 μM: mouse, cryopreserved pooled hepatocytes in suspension, read-out: Mouse heps Clint
Experimental: (iii) Hepatocyte Stability (Human, Mouse, Rat or Dog)
Test compound (3 μM) is incubated with cryopreserved hepatocytes in suspension. Samples are removed at 6 time points over the course of a 60 min experiment and test compound is analysed by LC-MS/MS. An intrinsic clearance value (CLint) with standard error and half-life (t %) are calculated. Cryopreserved pooled hepatocytes are stored in liquid nitrogen prior to use. […] The final incubation volume is 500 μL. A control incubation is included for each compound tested where lysed cells are added instead of viable cells. Two control compounds are included with each species.
The reactions are stopped by transferring 50 μL of incubate to 100 μL methanol containing internal standard at the appropriate time points. The control (lysed cells) is incubated for 60 min only. The termination plates are centrifuged at 2500 rpm at 4° C. for 30 min to precipitate the protein. Following protein precipitation, the sample supernatants are combined in cassettes of up to 4 compounds and analysed using generic LC-MS/MS conditions. From a plot of In peak area ratio (compound peak area/internal standard peak area) against time, the gradient of the line is determined. Subsequently, half-life (t %) and intrinsic clearance (CLint) are calculated using the equations below: […]

[2] = biological target: T1, dopamine uptake transporter (rat DAT) (Rattus norvegicus, UniProt P23977); test: Dopamine transporter uptake assay; assay type: biochemical; conditions: rat striatum synaptosomes, [3H]dopamine
T1 construct: is determined in rat striatum synaptosomes following [^3H]dopamine scintillation counting; from tissue; host or cells: rat striatum synaptosomes

hGPR88 receptor = hGPR88 receptor (Homo sapiens, UniProt Q9GZN0); test: hGPR88-HEK cAMP accumulation assay; conditions: HEK-293 cells expressing human recombinant GPR88, forskolin 200 nM, High/Medium/Low bands
hGPR88 receptor, sequence (Q9GZN0 whole entry): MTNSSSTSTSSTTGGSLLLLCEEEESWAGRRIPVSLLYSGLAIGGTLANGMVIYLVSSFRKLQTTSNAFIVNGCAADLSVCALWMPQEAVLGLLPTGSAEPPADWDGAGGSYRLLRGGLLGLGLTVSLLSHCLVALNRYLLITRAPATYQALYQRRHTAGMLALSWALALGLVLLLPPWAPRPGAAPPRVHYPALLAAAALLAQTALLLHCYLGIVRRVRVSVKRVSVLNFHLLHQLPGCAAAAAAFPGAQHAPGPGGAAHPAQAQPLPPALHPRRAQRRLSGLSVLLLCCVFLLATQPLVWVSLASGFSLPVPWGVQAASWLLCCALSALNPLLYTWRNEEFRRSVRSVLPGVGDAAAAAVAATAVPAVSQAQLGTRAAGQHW
Experimental: Biological Assay 1: hGPR88-HEK cAMP Accumulation Assay
Cryopreserved vials of HEK-293 cells expressing human recombinant GPR88 receptor are re-suspended in KRH assay buffer and 5 μl of cell solution is suspended in test wells at a seeding density of 2500±500 cells per well using the multidrop to provide a final reaction volume of 10 μl containing 0.5% DMSO. Assay plate is incubated for 30 min at room temperature and the reaction is terminated by addition of 5 μl of each of the cAMP detection reagents of the cAMP Gi kit (Cisbio Bioassays, 62AM9PEJ), diluted in cell lysis buffer, to each well using the multidrop in the following order: first the cAMP-d2 conjugate, then the anti-cAMP cryptate conjugate. […] Raw counts were converted to cAMP concentrations via a standard curve before EC50 and Emax determination. Data is expressed as % decrease in forskolin stimulated cAMP compared to cells treated with vehicle alone in the same buffer and on the same plate.

T1 sequence (P23977 whole entry): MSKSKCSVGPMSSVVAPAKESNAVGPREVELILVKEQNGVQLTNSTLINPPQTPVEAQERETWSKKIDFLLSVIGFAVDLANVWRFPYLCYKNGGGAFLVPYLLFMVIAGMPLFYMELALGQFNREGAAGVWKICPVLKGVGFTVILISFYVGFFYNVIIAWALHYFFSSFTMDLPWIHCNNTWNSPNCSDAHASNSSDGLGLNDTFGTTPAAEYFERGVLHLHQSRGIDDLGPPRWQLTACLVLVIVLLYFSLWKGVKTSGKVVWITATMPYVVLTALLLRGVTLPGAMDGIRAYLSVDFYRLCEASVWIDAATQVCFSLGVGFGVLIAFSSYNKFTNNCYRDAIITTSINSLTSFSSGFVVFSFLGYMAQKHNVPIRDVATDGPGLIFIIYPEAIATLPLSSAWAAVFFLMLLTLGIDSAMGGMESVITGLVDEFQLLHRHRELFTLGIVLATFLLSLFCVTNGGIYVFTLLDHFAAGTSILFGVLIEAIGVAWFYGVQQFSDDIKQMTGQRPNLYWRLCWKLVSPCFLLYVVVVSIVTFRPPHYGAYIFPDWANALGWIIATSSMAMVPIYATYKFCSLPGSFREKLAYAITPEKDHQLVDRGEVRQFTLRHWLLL

SMILES	hepatocyte CLint at 3 μM [1] [µL/min/1e6 cells]	Inhibition of dopamine uptake transporter (% inhibition at 10 μM compound) ([2]; 10 µM) [% inhibition]	EC50 (hGPR88 receptor; GRP88 agonist activity (EC50)) [nM]	Mouse heps Clint ([1]; mouse cryopreserved hepatocytes) [μL/min/10^6 cells]	EC50 (hGPR88 receptor; read-out: GRP88 agonist activity (EC50)) [nM]	Inhibition of dopamine uptake transporter (% inhibition at 10 μM compound) [2] [% inhibition]
CCOc1ccc(-c2ccc(NC(=O)C3CC3c3ccccn3)cc2)cn1 (racemic) [Example 76, (rac-trans)-N-(4-(6-ethoxypyridin-3-yl)phenyl)-2-(pyridin-2-yl)cyclopropane-1-carboxamide]		7		30	1000 to 5000	
COCc1ccc(C23CC(NC(=O)C4CC4c4ccccn4)(C2)C3)cc1 (racemic) [Example 111, (rac-trans)-N-(3-(4-(methoxymethyl)phenyl)bicyclo[1.1.1]pentan-1-yl)-2-(pyridin-2-yl)cyclopropane-1-carboxamide]	22		1000 to 5000			14
COCc1ccc(-c2ccc(NC(=O)C(C)(C)Oc3ccc(F)cc3)cc2)cc1 [Example 2, 2-(4-fluorophenoxy)-N-(4′-(methoxymethyl)-[1,1′-biphenyl]-4-yl)-2-methylpropanamide]	54		< 1000			3
CCOc1ccc(-c2ccc(NC(=O)C(C)(C)Oc3ccc(F)cc3)cc2)cn1 [Example 26, N-(4-(6-ethoxypyridin-3-yl)phenyl)-2-(4-fluorophenoxy)-2-methylpropanamide]	70		< 1000			7
COCc1ccc(-c2ccc3c(c2)CCCN3C(=O)C(C)(C)Oc2ccc(F)cc2)cc1 [Example 31, 2-(4-fluorophenoxy)-1-(6-(4-(methoxymethyl)phenyl)-3,4-dihydroquinolin-1(2H)-yl)-2-methylpropan-1-one]	76		< 1000			52

The next lines start with the values.

hepatocyte CLint at 3 μM [1] [µL/min/1e6 cells]	Inhibition of dopamine uptake transporter (% inhibition at 10 μM compound) ([2]; 10 µM) [% inhibition]	EC50 (hGPR88 receptor; GRP88 agonist activity (EC50)) [nM]	Mouse heps Clint ([1]; mouse cryopreserved hepatocytes) [μL/min/10^6 cells]	EC50 (hGPR88 receptor; read-out: GRP88 agonist activity (EC50)) [nM]	Inhibition of dopamine uptake transporter (% inhibition at 10 μM compound) [2] [% inhibition]	SMILES
65	11	< 1000				COCc1ccc(-c2ccc(NC(=O)C3CC3c3ccccn3)cc2)cc1 (racemic) [Example 1, (rac-trans)-N-(4′-(methoxymethyl)-[1,1′-biphenyl]-4-yl)-2-(pyridin-2-yl)cyclo propane-1-carboxamide]
14		< 1000			12	CS(=O)(=O)c1ccc(-c2ccc(NC(=O)C3CC3c3ccccn3)cc2)cc1 (racemic) [Example 85, (rac-trans)-N-(4′-(methylsulfonyl)-[1,1′-biphenyl]-4-yl)-2-(pyridin-2-yl)cyclopropane-1-carboxamide]
31		< 1000			1	O=C(Nc1ccc(-c2ccc(OC3CC3)cc2)cc1)C1CC1c1ccccn1 (racemic) [Example 87, (rac-trans)-N-(4′-cyclopropoxy-[1,1′-biphenyl]-4-yl)-2-(pyridin-2-yl)cyclopropane-1-carboxamide]
